Reference: ChEMBL document CHEMBL5584342, “The Missing Link(er): A Roadmap to Macrocyclization in Drug Discovery” (J Med Chem, 2024)

Experiment: Lipophilicity, log D of compound at pH 7.4
Conditions: buffer

logD: 3
SMILES: CO[C@H]1/C(F)=C/C[C@H](C)[C@@H](C)S(=O)(=O)NC(=O)c2ccc3c(c2)N(C[C@@H]2CCO[C@H]21)C[C@@]1(CCCc2cc(Cl)ccc21)CO3
